According to the NIST ThermoML archive (doi:10.1021/acs.jced.8b01217):

Conditions: Liquid, Ebulliometric method (Recirculating still)

O [water]
Conditions	vapor or sublimation pressure [kPa]
310.81 K	6.424
327.62 K	15.58
339.92 K	27.15
349.24 K	41.77
353.35 K	47.72
357.89 K	57.67
362.48 K	68.16
366.81 K	80.61
370.97 K	93.23
375.04 K	107.24
